According to patent US8512757B2, “Micelles for drug delivery” (Agency for Science, Techology and Research, priority 2006, dated 2013):

Columns and labels:
[1] = tested on: 4T1 cells; experiment: Cellular distribution and uptake of DOX by confocal microscopy; type: cell-based, mouse; conditions: DOX 10 mg/L, 4 hours
Method: Free DOX (10 mg/L) and DOX-loaded micelles (DOX content: 10 mg/L) in RPMI 1640 medium (without folate) were incubated with 4T1 cells for 4 hours before examination. The cells on the cover glass were thoroughly washed three times with PBS and visualized by CLSM (Olympus FV300, Japan). DOX was excited at 532 nm with emission at 595 nm. The laser power was 10%. All the observations were conducted using the same resolution.

[2] = tested on: 4T1 mouse breast cancer cells; experiment: Cytotoxicity test (MTT); type: cell-based; conditions: 4T1 cells, 48 hours, 37° C.
Method: 4T1 mouse breast cancer cells were cultured in RPMI 1640 (without folate) supplemented with 10% FBS, 5% penicillin, 2 mM L-glutamine (Sigma), and incubated at 37° C., 5% CO2. The cells were seeded onto 96-well plates at 10,000 cells per well, and incubated for one day. […] The media in the wells were replaced with 100 μL of the pre-prepared samples. The plates were then returned to the incubator and maintained in 5% CO2, at 37° C. for 48 hours. Fresh growth media and 10 μL aliquots of MTT solution were used to replace the mixture in each well after 48 hours. The plates were then returned to the incubator and maintained in 5% CO2, at 37° C., for a further 3 hours. The growth medium and excess MTT in each well were then removed. DMSO (150 μL) was then added to each well to dissolve the internalised purple formazan crystals. An aliquot of 100 μL was taken from each well and transferred to a fresh 96-well plate. Each sample was tested in eight replicates per plate. Three plates were used, making a total of 24 replicates per sample. The plates were then assayed at 550 nm and 690 nm. The absorbance readings of the formazan crystals were taken to be that at 550 nm subtracted by that at 690 nm. The results were expressed as a percentage of the absorbance of the blank control.

[3] = Biodistribution in mice bearing subcutaneous 4T1 breast tumours; type: in vivo; conditions: 5 mg/kg DOX
Method: Female balb/c (body weight: 19-21 g) were subcutaneously implanted with 4T1 cells (10^7 cells per animal). Tumours were allowed to grow for 2 weeks. Free DOX and DOX-loaded micelles were administrated to the animals by tail vein injection at an equivalent DOX dose of 5 mg/kg. At 10 minutes, 30, minutes, 2 hours and 4 hours, blood samples were taken, and the animals were sacrificed. The liver, lung, heart, spleen, kidney and tumour were removed, and kept at −80° C. for future analysis. The organs were weighted and homogenized. DOX distributed in different organs was extracted using chloroform and isopropanol, and analyzed as described by H. S. Yoo, T. G. Park, J. Control. Rel. 2004, 100, 247. Homogenized tissue was added into an acidic hydrolysis buffer containing 2.0 M HCl solution at 80° C. for 10 minutes. The supernatant was collected, and 0.9 mL of the mixture of chloroform and isopropanol (3:1 in volume) was then added. After vortex-mixing, the organic layer was collected by centrifugation at 16,000 rpm for 15 minutes at room temperature. The solution was dried, and re-dissolved in a mobile phase and analyzed by high performance liquid chromatography (HPLC). The recovery rate was 70%, and corrected by an internal standard. The HPLC system consisted of a Waters 2690 separation module and Waters 2475 multi λ fluorescence detector. […] The DOX peak was detected at an excitation wavelength of 480 nm and an emission wavelength of 580 nm.

[4] = tail vein injection, 4T1 tumour

In the case of `COc1cccc2c1C(=O)c1c(O)c3c(c(O)c1C2=O)C[C@@](O)(C(=O)CO)C[C@@H]3O[C@H]1C[C@H](N)[C@H](O)[C@H](C)O1.Cl` [free DOX, Doxorubicin hydrochloride], the “cellular distribution of DOX” value [1] is reported as “only accumulated in the nucleus”, the “IC50 value of DOX” value [2] is reported as 3.0 µg/mL and the “organ distribution of DOX” value ([3]; spleen, kidney, heart, liver and lung) is reported as “accumulating uniformly in the heart, lung and liver”. The “t1/2 in the blood” value ([3]; tail vein injection) was “about 30 minutes”, the “maximum DOX level in tumour tissue” value [3, 4] was 2.9 µg/g and the “time at which maximum DOX level in tumour was reached” value [3, 4] was 30 min. The “DOX level in tumour tissue at 240 minutes” value ([3]; tail vein injection, 240 minutes) was 1.0 µg/g.
